This note sets out measurements from ChEMBL document CHEMBL4376829, “Discovery and biological evaluation of vinylsulfonamide derivatives as highly potent, covalent TEAD autopalmitoylation inhibitors” (Eur J Med Chem, 2019).

Broadly, the inhibition is the change of the read-out against control, counted positive when it falls.

Test [1] addresses Transcriptional enhancer factor TEF-3 (Homo sapiens, UniProt Q15561). Description: Binding affinity to N-terminal His6 tagged human TEAD4-YBD (217 to 434 residues) expressed in Escherichia coli C43 (DE3) cells assessed as covalent modification by measuring change in protein mass by mass spectral analysis.
Test [2] is filed under the species Homo sapiens. The test can be described thus: Inhibition of TEAD transcriptional activity in human HCT116 cells assessed as reduction in CTGF expression by qRT-PCR analysis. The class given is cell-based. (In qPCR the cycle at which signal appears reflects the starting amount.)
Test [3] addresses Transcription initiation factor TFIID subunit 1-like (Homo sapiens) (UniProt Q8IZX4). Description: Inhibition of recombinant human TAF1L (1428 to end residues) at 10 uM using RRRFRPASPLRGPPK as substrate measured after 120 mins in presence of [gamma33P]ATP by scintillation counting method relative to control.
Test [4] addresses SRSF protein kinase 1 (Homo sapiens) (UniProt Q96SB4). Description: Inhibition of recombinant human SRPK1 (2 to end residues) at 10 uM using RSRSRSRSRSRSRSR as substrate measured after 40 mins in presence of [gamma33P]ATP by scintillation counting method relative to control.
Test [5] is filed under the species Homo sapiens. Description: Inhibition of human Ros V2262A mutant(1883 to end residues) at 10 uM using KKKSPGEYVNIEFG as substrate measured after 40 mins in presence of [gamma33P]ATP by scintillation counting method relative to control.
Test [6] concerns the target Receptor-interacting serine/threonine-protein kinase 2 (Homo sapiens) (UniProt O43353). The test can be described thus: Inhibition of human RIPK2 (1 to 299 residues) at 10 uM using MBP as substrate measured after 120 mins in presence of [gamma33P]ATP by scintillation counting method relative to control.
The target in test [7] is Interferon-induced, double-stranded RNA-activated protein kinase (Homo sapiens) (UniProt P19525). Description: Inhibition of recombinant human PKR (252 to end residues) at 10 uM using RSRSRSRSRSRSRSR as substrate measured after 40 mins in presence of [gamma33P]ATP by scintillation counting method relative to control.
The species entered for test [8] is Homo sapiens. Description: Inhibition of full-length recombinant human PKA at 10 uM using LRRASLG as substrate after 40 mins by in presence of [gamma33P]ATP by scintillation counting method relative to control.
Test [9] concerns the target Serine/threonine-protein kinase pim-1 (Homo sapiens) (UniProt P11309). The test can be described thus: Inhibition of recombinant full-length human PIM1 at 10 uM using KKRNRTLTV as substrate measured after 40 mins in presence of [gamma33P]ATP by scintillation counting method relative to control.
In test [10] the test system is Phosphorylase b kinase gamma catalytic chain, liver/testis isoform (Homo sapiens), P15735 [F290L]. The test can be described thus: Inhibition of recombinant human PhKgamma2 F290L mutant (1 to 301 residues) at 10 uM using KKLNRTLSFAEPG as substrate measured after 40 mins in presence of [gamma33P]ATP by scintillation counting method relative to control.
For test [11], the target named is Fibroblast growth factor receptor 2 (Homo sapiens) (UniProt P21802). Description: Inhibition of recombinant human FGFR2 (456 to 770 residues) at 10 uM using poly(Glu, Tyr) 4:1 as substrate measured after 40 mins in presence of [gamma33P]ATP by scintillation counting method relative to control.
The target in test [12] is Serine/threonine-protein kinase 3 (Homo sapiens) (UniProt Q13188). Description: Inhibition of recombinant full-length human MST2 (2 to end residues) at 10 uM using myelin basic protein as substrate measured after 40 mins in presence of [gamma33P]ATP by scintillation counting method relative to control.
Test [13] concerns the target Serine/threonine-protein kinase Chk2 (Homo sapiens) (UniProt O96017). The test can be described thus: Inhibition of recombinant human CHK2 (5 to end residues) at 10 uM using KKKVSRSGLYRSPSMPENLNRPR as substrate measured after 40 mins in presence of [gamma33P]ATP by scintillation counting method relative to control.
The target of test [14] is CDK3/Cyclin E (Homo sapiens) (UniProt P24864+Q00526). The test can be described thus: Inhibition of recombinant full-length human CDK3/cyclinE at 10 uM using histone H1 as substrate measured after 40 mins in presence of [gamma33P]ATP by scintillation counting method relative to control. It counts as protein-complex assay.
The target of test [15] is Dual specificity mitogen-activated protein kinase kinase 1 (Homo sapiens) (UniProt Q02750). The test can be described thus: Inhibition of recombinant full-length human MEK1 at 10 uM using unactive MAPK2 as substrate measured after 40 mins in presence of [gamma33P]ATP by scintillation counting method relative to control.
The target of test [16] is Mitogen-activated protein kinase kinase kinase kinase 5 (Homo sapiens) (UniProt Q9Y4K4). The test can be described thus: Inhibition of recombinant full-length human MAP4K5 at 10 uM using myelin basic protein as substrate measured after 40 mins in presence of [gamma33P]ATP by scintillation counting method relative to control.
Test [17] addresses Leucine-rich repeat serine/threonine-protein kinase 2 (Homo sapiens) (UniProt Q5S007). The test can be described thus: Inhibition of recombinant human LRRK2 (970 to end residues) at 10 uM using RLGRDKYKTLRQIRQ as substrate measured after 40 mins in presence of [gamma33P]ATP by scintillation counting method relative to control.
Test [18] concerns the target Calcium/calmodulin-dependent protein kinase type 1 (Homo sapiens) (UniProt Q14012). Description: Inhibition of recombinant full length human CAMK1 (2 to end residues) at 10 uM using […] as substrate incubated for 40 mins in presence of [gamma-33P]-ATP by scintillation counting method relative to control.
Test [19] addresses 5'-AMP-activated protein kinase catalytic subunit alpha-1 (Homo sapiens) (UniProt Q13131). Description: Inhibition of recombinant full length human AMPKalpha1 at 10 uM using AMARAASAAALARRR as substrate after 40 mins in presence of [gamma33P]ATP by scintillation counting method relative to control.
Test [20] concerns the target Tyrosine-protein kinase ABL1 (Homo sapiens) (UniProt P00519). Description: Inhibition of human Abl (27 to end residues) at 10 uM using EAIYAAPFAKKK as substrate after 40 mins in presence of [gamma33P]ATP by scintillation counting method relative to control.
Test [21] has as its target Wee1-like protein kinase (Homo sapiens) (UniProt P30291). The test can be described thus: Inhibition of recombinant human Wee1 (214 to end residues) at 10 uM using LSNLYHQGKFLQTFCGSPLYRRR as substrate measured after 40 mins in presence of [gamm33P]ATP by scintillation counting method relative to control.
Test [22] has as its target N-lysine methyltransferase SMYD2 (Homo sapiens) (UniProt Q9NRG4). The test can be described thus: Inhibition of human SMYD2 at 10 uM relative to control.
In test [23] the target is 3-phosphoinositide-dependent protein kinase 1 (Homo sapiens) (UniProt O15530). The test can be described thus: Inhibition of recombinant human PDK1 (52 to end residues) at 10 uM using KTFCGTPEYLAPEVRREPRILSEEEQEMFRDFDYIADWC as substrate measured after 40 mins in presence of [gamma33P]ATP by scintillation counting method relative to control.

Activity calls are given as the source filed them. The rule behind the calls is not given here.

Serine/threonine-protein kinase pim-1 (Homo sapiens), sequence (P11309 whole entry, looked up, the tested form may be a part, canonical isoform): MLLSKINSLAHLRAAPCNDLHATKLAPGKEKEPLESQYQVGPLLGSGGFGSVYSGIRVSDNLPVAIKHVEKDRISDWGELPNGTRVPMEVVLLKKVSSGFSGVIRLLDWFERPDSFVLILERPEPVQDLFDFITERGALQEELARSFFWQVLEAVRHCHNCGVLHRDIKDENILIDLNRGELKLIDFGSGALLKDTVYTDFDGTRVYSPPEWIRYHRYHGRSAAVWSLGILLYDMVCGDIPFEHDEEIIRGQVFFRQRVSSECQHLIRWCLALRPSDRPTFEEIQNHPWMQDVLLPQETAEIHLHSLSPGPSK
Dual specificity mitogen-activated protein kinase kinase 1 (Homo sapiens), sequence (Q02750 whole entry): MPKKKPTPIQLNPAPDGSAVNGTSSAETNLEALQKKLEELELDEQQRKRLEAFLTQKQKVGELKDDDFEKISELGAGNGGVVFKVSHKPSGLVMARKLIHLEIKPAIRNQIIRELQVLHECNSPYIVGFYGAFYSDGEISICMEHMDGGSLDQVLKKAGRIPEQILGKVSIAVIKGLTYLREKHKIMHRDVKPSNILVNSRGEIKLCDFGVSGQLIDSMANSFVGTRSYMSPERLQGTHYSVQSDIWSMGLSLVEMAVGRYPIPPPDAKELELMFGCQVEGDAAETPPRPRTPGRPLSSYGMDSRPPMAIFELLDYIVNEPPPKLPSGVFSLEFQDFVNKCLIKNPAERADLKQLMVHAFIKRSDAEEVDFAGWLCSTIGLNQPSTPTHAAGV
Serine/threonine-protein kinase Chk2 (Homo sapiens), sequence (O96017 whole entry): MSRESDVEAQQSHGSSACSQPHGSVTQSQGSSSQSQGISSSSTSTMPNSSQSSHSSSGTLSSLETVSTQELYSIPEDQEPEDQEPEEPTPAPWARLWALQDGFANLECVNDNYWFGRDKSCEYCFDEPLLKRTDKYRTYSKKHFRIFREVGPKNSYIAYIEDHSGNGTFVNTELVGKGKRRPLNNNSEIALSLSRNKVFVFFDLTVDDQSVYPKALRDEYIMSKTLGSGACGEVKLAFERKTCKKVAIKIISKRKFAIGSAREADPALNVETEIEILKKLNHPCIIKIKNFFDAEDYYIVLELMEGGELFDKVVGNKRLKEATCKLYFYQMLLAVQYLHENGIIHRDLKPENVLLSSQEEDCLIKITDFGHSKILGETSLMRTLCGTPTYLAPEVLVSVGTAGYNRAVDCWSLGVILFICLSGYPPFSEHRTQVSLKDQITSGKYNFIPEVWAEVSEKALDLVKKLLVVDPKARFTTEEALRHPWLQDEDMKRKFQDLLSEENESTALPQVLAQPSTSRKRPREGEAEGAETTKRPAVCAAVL
Transcription initiation factor TFIID subunit 1-like (Homo sapiens), sequence (Q8IZX4 whole entry): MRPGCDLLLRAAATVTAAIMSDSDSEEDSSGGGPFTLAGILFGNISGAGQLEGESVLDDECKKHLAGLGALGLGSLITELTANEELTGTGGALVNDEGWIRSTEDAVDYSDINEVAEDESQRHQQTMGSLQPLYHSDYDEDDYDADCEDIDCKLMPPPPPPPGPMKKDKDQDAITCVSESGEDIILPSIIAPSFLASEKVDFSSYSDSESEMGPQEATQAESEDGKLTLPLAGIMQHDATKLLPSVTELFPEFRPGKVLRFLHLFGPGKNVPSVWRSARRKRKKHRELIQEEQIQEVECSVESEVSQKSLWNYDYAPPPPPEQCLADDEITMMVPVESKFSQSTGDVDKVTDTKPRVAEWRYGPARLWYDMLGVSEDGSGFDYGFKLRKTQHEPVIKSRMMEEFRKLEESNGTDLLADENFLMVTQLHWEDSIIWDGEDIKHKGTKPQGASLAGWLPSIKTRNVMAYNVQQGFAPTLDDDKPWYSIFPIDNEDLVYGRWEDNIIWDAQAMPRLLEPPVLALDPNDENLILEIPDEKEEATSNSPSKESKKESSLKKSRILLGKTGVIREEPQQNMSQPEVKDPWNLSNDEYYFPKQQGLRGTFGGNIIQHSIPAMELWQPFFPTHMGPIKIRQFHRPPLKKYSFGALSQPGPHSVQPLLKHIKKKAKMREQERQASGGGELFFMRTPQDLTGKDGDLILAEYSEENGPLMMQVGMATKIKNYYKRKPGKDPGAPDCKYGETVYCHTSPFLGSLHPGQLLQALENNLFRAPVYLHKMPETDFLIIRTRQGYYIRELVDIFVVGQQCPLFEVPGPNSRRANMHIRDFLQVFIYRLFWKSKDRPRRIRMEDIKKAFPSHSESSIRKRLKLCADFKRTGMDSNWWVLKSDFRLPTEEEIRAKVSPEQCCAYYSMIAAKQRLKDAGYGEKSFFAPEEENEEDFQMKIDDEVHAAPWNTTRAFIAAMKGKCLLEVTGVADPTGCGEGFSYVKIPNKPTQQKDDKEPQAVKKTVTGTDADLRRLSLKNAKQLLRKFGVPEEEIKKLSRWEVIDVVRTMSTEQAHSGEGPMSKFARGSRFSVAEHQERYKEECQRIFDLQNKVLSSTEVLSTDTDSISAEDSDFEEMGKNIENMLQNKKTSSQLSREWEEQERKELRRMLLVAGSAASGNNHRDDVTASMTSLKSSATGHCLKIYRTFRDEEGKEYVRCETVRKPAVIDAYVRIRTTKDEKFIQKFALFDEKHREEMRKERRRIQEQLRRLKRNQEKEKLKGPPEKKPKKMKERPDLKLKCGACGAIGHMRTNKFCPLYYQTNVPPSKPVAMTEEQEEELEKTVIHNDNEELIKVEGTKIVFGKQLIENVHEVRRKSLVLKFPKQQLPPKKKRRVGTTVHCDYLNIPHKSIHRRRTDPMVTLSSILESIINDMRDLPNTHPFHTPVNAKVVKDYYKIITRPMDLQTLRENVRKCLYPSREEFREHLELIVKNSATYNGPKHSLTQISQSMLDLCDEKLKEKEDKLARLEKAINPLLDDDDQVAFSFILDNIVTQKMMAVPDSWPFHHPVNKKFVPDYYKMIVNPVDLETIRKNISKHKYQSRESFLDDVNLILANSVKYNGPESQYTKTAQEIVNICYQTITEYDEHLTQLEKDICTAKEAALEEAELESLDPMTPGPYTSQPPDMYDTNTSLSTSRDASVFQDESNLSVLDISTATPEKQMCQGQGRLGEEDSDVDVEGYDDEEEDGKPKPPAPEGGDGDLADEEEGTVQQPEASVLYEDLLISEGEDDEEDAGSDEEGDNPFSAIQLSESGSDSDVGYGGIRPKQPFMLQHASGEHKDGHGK
5'-AMP-activated protein kinase catalytic subunit alpha-1 (Homo sapiens), sequence (Q13131 whole entry, looked up): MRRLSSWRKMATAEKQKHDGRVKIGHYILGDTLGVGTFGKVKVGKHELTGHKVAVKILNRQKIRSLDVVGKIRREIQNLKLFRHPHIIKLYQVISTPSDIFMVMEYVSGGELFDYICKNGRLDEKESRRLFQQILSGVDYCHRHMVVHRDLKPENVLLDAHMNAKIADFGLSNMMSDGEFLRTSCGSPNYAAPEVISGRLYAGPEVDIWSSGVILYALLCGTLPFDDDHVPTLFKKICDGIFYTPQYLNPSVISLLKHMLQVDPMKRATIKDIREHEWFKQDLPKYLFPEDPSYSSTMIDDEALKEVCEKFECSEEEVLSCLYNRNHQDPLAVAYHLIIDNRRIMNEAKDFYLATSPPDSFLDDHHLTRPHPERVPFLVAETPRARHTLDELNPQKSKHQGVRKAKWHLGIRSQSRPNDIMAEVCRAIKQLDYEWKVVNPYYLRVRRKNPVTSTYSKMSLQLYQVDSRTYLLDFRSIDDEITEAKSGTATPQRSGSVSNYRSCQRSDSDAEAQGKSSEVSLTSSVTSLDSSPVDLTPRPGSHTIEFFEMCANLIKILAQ
CDK3/Cyclin E (Homo sapiens), sequence (P24864 whole entry, looked up): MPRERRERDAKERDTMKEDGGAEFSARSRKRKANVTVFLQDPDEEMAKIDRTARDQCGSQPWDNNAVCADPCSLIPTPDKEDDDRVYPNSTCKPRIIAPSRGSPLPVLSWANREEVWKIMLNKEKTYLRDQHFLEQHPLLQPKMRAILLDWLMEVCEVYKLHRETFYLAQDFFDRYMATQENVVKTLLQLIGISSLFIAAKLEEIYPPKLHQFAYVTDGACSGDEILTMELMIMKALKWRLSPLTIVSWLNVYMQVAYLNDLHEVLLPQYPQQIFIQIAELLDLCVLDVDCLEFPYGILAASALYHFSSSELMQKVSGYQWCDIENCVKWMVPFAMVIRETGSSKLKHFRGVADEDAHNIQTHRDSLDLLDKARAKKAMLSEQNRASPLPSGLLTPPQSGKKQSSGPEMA
CDK3/Cyclin E (Homo sapiens), sequence (Q00526 whole entry, looked up): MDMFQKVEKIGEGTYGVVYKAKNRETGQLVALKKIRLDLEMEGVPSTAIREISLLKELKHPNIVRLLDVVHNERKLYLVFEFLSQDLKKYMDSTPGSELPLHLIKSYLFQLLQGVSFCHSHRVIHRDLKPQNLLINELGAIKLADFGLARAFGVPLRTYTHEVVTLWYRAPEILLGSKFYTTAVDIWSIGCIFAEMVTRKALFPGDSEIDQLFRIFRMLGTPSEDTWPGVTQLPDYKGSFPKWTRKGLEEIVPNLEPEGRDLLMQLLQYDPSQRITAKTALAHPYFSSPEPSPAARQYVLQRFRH
Serine/threonine-protein kinase 3 (Homo sapiens), sequence (Q13188 whole entry): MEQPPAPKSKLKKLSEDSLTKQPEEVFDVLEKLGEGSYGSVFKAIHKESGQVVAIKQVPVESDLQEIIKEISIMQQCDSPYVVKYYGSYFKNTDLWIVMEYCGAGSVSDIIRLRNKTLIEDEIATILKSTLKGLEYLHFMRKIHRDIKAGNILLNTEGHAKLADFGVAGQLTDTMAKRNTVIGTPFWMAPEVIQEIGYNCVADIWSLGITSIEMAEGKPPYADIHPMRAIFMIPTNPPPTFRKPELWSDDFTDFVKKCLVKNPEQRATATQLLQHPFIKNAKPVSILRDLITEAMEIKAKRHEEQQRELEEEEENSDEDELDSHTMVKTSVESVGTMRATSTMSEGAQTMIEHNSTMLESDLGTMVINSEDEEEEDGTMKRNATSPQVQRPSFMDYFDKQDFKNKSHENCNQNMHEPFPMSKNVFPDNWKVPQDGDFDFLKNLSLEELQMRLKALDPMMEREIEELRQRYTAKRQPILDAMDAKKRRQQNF

With `C=CS(=O)(=O)Nc1ccc(Cc2ccc3ccccc3c2)cc1`, in [1], the result was Active. Also, the inhibition entry in test [2] was “Dose-dependent effect”; in [3], -4%; in test [4], 8%; in test [5], -6%; in test [6], 6%; in [7], -8%. Further, the inhibition in test [8] was 1%; in test [9], -3%; in [10], 6%; in test [11], -4%; in test [12], 2%; in test [13], -7%. Moreover, the inhibition in [14] is 7%; in test [15], -3%; in [16], 2%; in [17], -10%; in test [18], 6%; in test [19] it was 2%. The inhibition in test [20] is 7%; in test [21], -4%; in [22], 3%; in test [23], 3%.
